15 compounds from ChEMBL document CHEMBL1153341, “Synthesis of new camptothecin analogs with improved antitumor activities” (Bioorg Med Chem Lett, 2009) can be followed below.

The test system of data set [1] is HCT-116. Put plainly: Antiproliferative activity against human HCT116 cells after 3 days. It counts as functional, cell-based. The conditions noted are these: HCT-116, 72 h.
The subject of data set [2] is NCI-H460. Put plainly: Antiproliferative activity against human NCI-H460 cells after 3 days. The conditions noted are these: NCI-H460, 72 h. Type of data set: functional, cell-based.
The next data set concerns QG-56. Kind of data set: Antiproliferative activity against human QG56 cells after 3 days. It counts as functional, cell-based. The conditions noted are these: QG-56, 72 h.
Data set [3] has as its system PC-6. Put plainly: Antiproliferative activity against human PC6 expressing BCRP cells after 6 days. It counts as functional, cell-based. The conditions noted are these: PC-6, 144 h.
Data set [4] has as its system PC-6. Kind of data set: Antiproliferative activity against human PC6 cells carrying pRC after 6 days. It counts as functional, cell-based. The conditions noted are these: PC-6, 144 h.
In data set [5] the test system is PC-6. Put plainly: Ratio of IC50 for human PC6 expressing BCRP cells to IC50 for human PC6 cells carrying pRC. It counts as functional.
In a further data set the target is T1, DNA topoisomerase 1 (Homo sapiens, UniProt P11387).
T1 sequence (P11387 whole entry): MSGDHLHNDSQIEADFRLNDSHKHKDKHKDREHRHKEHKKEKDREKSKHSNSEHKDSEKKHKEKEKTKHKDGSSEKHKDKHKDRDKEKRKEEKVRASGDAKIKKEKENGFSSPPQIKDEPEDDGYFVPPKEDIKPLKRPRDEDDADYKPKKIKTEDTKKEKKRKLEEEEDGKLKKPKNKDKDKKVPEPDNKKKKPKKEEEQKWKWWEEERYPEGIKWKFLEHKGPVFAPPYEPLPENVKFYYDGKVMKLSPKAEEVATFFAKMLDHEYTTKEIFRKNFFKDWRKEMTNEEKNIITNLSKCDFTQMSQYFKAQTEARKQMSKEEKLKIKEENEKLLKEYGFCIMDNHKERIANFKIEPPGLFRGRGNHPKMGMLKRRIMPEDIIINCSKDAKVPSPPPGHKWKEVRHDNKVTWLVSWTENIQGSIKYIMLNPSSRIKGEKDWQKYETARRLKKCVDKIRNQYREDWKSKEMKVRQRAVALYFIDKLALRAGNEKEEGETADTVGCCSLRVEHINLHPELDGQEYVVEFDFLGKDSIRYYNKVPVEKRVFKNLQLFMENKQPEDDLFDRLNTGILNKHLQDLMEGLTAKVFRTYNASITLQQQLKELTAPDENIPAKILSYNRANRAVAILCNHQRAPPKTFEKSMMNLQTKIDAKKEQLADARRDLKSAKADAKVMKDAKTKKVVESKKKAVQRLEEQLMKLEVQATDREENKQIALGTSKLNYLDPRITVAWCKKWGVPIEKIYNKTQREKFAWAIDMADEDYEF
Kind of data set: Inhibition of human topoisomerase 1.

Data set [6] in a line: Toxicity to iv dosed mouse administered as single bolus dose for 3 weeks. Type of data set: organism-based. The following applies: in vivo.
The test system of data set [7] is NCI-H460. Put plainly: Antitumor activity against BCRP-positive human NCI-H460 cells xenografted in mouse at 100 mg/kg, iv administered as single bolus dose for 3 weeks. Type of data set: functional, organism-based. On the set-up: dose 100 mg/kg.
The test system of data set [8] is HCT-116. Kind of data set: Antitumor activity against BCRP-negative human HCT116 cells xenografted in mouse at 40 mg/kg, iv administered as single bolus dose for 3 weeks. It counts as functional, organism-based. Also on record: dose 40 mg/kg.
In data set [9] the test system is HCT-116. Put plainly: Antitumor activity against BCRP-negative human HCT116 cells xenografted in mouse at 100 mg/kg, iv administered as single bolus dose for 3 weeks. It counts as functional, organism-based. Also on record: dose 100 mg/kg. (In general: A xenograft is tissue or cells of one species grown in another, often human tumour cells in immunodeficient mice.)

The test system of data set [10] is NCI-H460. Put plainly: Antitumor activity against BCRP-positive human NCI-H460 cells xenografted in mouse at 40 mg/kg, iv administered as single bolus dose for 3 weeks. On the set-up: dose 40 mg/kg. It counts as functional, organism-based.

pIC50: −log10 of the molar value. Calls of active or inactive are those of the source. No cut-off for these calls is given here.

On to `CCCCN1C=Nc2cccc3nc4c(c1c23)Cn1c-4cc2c(c1=O)COC(=O)[C@]2(O)CC`, for which the pIC50 was 9.28 in the data set with HCT-116 [1], 8.80 with NCI-H460 [2] and 8.64 in the data set with QG-56.
As for `CC[C@@]1(O)C(=O)OCc2c1cc1n(c2=O)Cc2c-1nc1cccc3c1c2N(CCc1ccccc1)C=N3`, the results for the negative logarithm of the IC50 (pIC50) in the data set with HCT-116 [1], in the data set on NCI-H460 [2] and in the data set on QG-56 were 9.44, 9.04 and 8.68, respectively.
Consider `CCCCCN1C(=O)Nc2cccc3nc4c(c1c23)Cn1c-4cc2c(c1=O)COC(=O)[C@]2(O)CC`, for which the negative-log IC50 (pIC50) with HCT-116 [1] was 9.07; in the data set on NCI-H460 [2] it was 8.09; in the data set with QG-56 it was 8.07.
In the same order, the values of `CCCCN1C(=O)Nc2cccc3nc4c(c1c23)Cn1c-4cc2c(c1=O)COC(=O)[C@]2(O)CC` are 9.40, 9.00 and 8.92.
The matching figures for `CC[C@@]1(O)C(=O)OCc2c1cc1n(c2=O)Cc2c-1nc1cccc3c1c2N(CCC(C)C)C=N3`: above 10.40, 9.96 and 9.60.
The matching figures for `CCCCCN1C(C)=Nc2cccc3nc4c(c1c23)Cn1c-4cc2c(c1=O)COC(=O)[C@]2(O)CC`: 9.92, 9.18 and 8.74.
With `CCc1c2c(nc3ccc(O)cc13)-c1cc3c(c(=O)n1C2)COC(=O)[C@]3(O)CC` [7-ETHYL-10-HYDROXYCAMPTOTHECIN], the pIC50 in the data set on PC-6 [3] is 8.29; with PC-6 [4], 9.37; in the data set with HCT-116 [1] it was 9.26; with NCI-H460 [2], 8.48; on DNA topoisomerase 1, 5.26; with QG-56 it was 8.55. In the data set on PC-6 [5], the “Ratio IC50” value was found to be 12.
For the compound `CC[C@@]1(O)C(=O)OCc2c1cc1n(c2=O)Cc2c-1nc1cccc3c1c2N(CCC(C)C)C(=O)N3`, the negative-log IC50 (pIC50) in the data set with HCT-116 [1] was 10.30; in the data set with NCI-H460 [2] it was 9.14; in the data set on QG-56, 9.24.
In the same order, the values of `CC[C@@]1(O)C(=O)OCc2c1cc1n(c2=O)Cc2c-1nc1cccc3c1c2N(CCC(C)C)C(=S)N3` are 10.70, 10.10 and 9.80.
In [6], `CCc1c2c(nc3ccc(OC(=O)N4CCC(N5CCCCC5)CC4)cc13)-c1cc3c(c(=O)n1C2)COC(=O)[C@]3(O)CC` [IRINOTECAN] had an MTD at 504 h of 100 mg/kg.
With `CC[C@@]1(O)C(=O)OCc2c1cc1n(c2=O)Cc2c-1nc1cccc3c1c2N(CCN1CCOCC1)C(=O)N3`, the negative logarithm of the IC50 (pIC50) was 8.44 with HCT-116 [1], 7.59 with NCI-H460 [2] and 7.74 in the data set with QG-56.
For the compound `CC[C@@]1(O)C(=O)OCc2c1cc1n(c2=O)Cc2c-1nc1cccc3c1c2N(CCN1CCOCC1)C=N3`, the pIC50 in the data set on HCT-116 [1] is 8.66; with NCI-H460 [2], 8.14; in the data set on QG-56, 8.03.
In the same order, the values of `CC[C@@]1(O)C(=O)OCc2c1cc1n(c2=O)Cc2c-1nc1cccc3c1c2N(CCc1ccccc1)C(=O)N3` are 9.60, 9.42 and 8.92.
The matching figures for `CC[C@@]1(O)C(=O)OCc2c1cc1n(c2=O)Cc2c-1nc1cccc3c1c2N(CCC(C)C)C(CO)=N3`: 9.36, 9.28 and 8.74.
Consider `CCCCCN1C=Nc2cccc3nc4c(c1c23)Cn1c-4cc2c(c1=O)COC(=O)[C@]2(O)CC`, for which the negative-log IC50 (pIC50) in the data set on PC-6 [3] was 9.46; in the data set on PC-6 [4] it was 9.74; in the data set on HCT-116 [1] it was 9.44; in the data set on NCI-H460 [2] it was 8.64; against DNA topoisomerase 1, 5.64; in the data set with QG-56 it was 8.64. Besides, the “Ratio IC50” value in the data set on PC-6 [5] stood at 2. Further, the result in the data set with NCI-H460 [7], in the data set with HCT-116 [8], with HCT-116 [9] and in the data set on NCI-H460 [10] was Active. This compound also displayed an MTD at 504 h in [6] of 40 mg/kg.

The term pIC50 denotes the IC50 on a negative log10 scale, so that one unit is a factor of ten.
